{"source": "PubChem BioAssay (NCI)", "assay_in_all_cases": "growth of human tumour cells (NCI), 48 h", "key": {"KM20L2 colon": {"system": "KM20L2 colon"}, "DLD-1 colon": {"system": "DLD-1 colon"}, "DMS 114 small cell lung": {"system": "DMS 114 small cell lung"}, "M19-MEL melanoma": {"system": "M19-MEL melanoma"}, "SNB-78 CNS": {"system": "SNB-78 CNS"}, "LXFL 529 NSCLC": {"system": "LXFL 529 NSCLC"}, "RXF-631 renal": {"system": "RXF-631 renal"}, "XF 498 CNS": {"system": "XF 498 CNS"}, "HOP-18 NSCLC": {"system": "HOP-18 NSCLC"}}, "note": "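A five-concentration, 48-hour dose response in 96-well plates underlies each endpoint, interpolated linearly between surrounding concentrations. At the TGI there is no net growth.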"}
{"compound": "COc1c2c(c(OC)c3c(=O)cc(C/C(=N/NC(=O)C[n+]4ccccc4)C(=O)Nc4cc(C)ccc4C)oc13)OCO2", "values": [{"measurement": "TGI", "setting": "KM20L2 colon", "result": "> 100", "unit": "µM"}, {"measurement": "TGI", "setting": "DLD-1 colon", "result": "> 100", "unit": "µM"}, {"measurement": "TGI", "setting": "DMS 114 small cell lung", "result": "> 100", "unit": "µM"}, {"measurement": "TGI", "setting": "M19-MEL melanoma", "result": "> 100", "unit": "µM"}, {"measurement": "TGI", "setting": "SNB-78 CNS", "result": "> 100", "unit": "µM"}, {"measurement": "TGI", "setting": "LXFL 529 NSCLC", "result": "> 100", "unit": "µM"}]}
{"compound": "CN(OC(=O)CC(=O)c1ccccc1)C(=O)Cc1ccccc1", "values": [{"measurement": "TGI", "setting": "KM20L2 colon", "result": "> 100", "unit": "µM"}, {"measurement": "TGI", "setting": "DLD-1 colon", "result": "> 100", "unit": "µM"}, {"measurement": "TGI", "setting": "DMS 114 small cell lung", "result": "> 100", "unit": "µM"}, {"measurement": "TGI", "setting": "M19-MEL melanoma", "result": "> 100", "unit": "µM"}, {"measurement": "TGI", "setting": "RXF-631 renal", "result": "> 100", "unit": "µM"}, {"measurement": "TGI", "setting": "SNB-78 CNS", "result": "> 100", "unit": "µM"}, {"measurement": "TGI", "setting": "LXFL 529 NSCLC", "result": "> 100", "unit": "µM"}]}
{"compound": "CCCOP1(=O)C=C(C)C(Cl)=C(C)C1", "note": "(centres undefined)", "values": [{"measurement": "TGI", "setting": "KM20L2 colon", "result": 88.8, "unit": "µM"}, {"measurement": "TGI", "setting": "DLD-1 colon", "result": 96.3, "unit": "µM"}, {"measurement": "TGI", "setting": "DMS 114 small cell lung", "result": 46.3, "unit": "µM"}, {"measurement": "TGI", "setting": "M19-MEL melanoma", "result": 52.7, "unit": "µM"}, {"measurement": "TGI", "setting": "RXF-631 renal", "result": "> 100", "unit": "µM"}, {"measurement": "TGI", "setting": "XF 498 CNS", "result": 31.4, "unit": "µM"}, {"measurement": "TGI", "setting": "HOP-18 NSCLC", "result": "> 100", "unit": "µM"}, {"measurement": "TGI", "setting": "LXFL 529 NSCLC", "result": 42.9, "unit": "µM"}]}
{"compound": "CC1=CC(=C(c2ccc(N)c(C)c2)c2ccc(N)c(C)c2)C=CC1=N", "values": [{"measurement": "TGI", "setting": "KM20L2 colon", "result": 14.5, "unit": "µM"}, {"measurement": "TGI", "setting": "DLD-1 colon", "result": "> 100", "unit": "µM"}, {"measurement": "TGI", "setting": "DMS 114 small cell lung", "result": 9.96, "unit": "µM"}, {"measurement": "TGI", "setting": "M19-MEL melanoma", "result": 14.7, "unit": "µM"}, {"measurement": "TGI", "setting": "XF 498 CNS", "result": 11.7, "unit": "µM"}, {"measurement": "TGI", "setting": "SNB-78 CNS", "result": 23.4, "unit": "µM"}, {"measurement": "TGI", "setting": "LXFL 529 NSCLC", "result": 15, "unit": "µM"}]}
{"compound": "CC12CC(=O)OC(Cc3ccccc31)O2", "note": "(centres undefined)", "values": [{"measurement": "TGI", "setting": "KM20L2 colon", "result": "> 100", "unit": "µM"}, {"measurement": "TGI", "setting": "DLD-1 colon", "result": "> 100", "unit": "µM"}, {"measurement": "TGI", "setting": "DMS 114 small cell lung", "result": "> 100", "unit": "µM"}, {"measurement": "TGI", "setting": "M19-MEL melanoma", "result": "> 100", "unit": "µM"}, {"measurement": "TGI", "setting": "XF 498 CNS", "result": "> 100", "unit": "µM"}, {"measurement": "TGI", "setting": "SNB-78 CNS", "result": "> 100", "unit": "µM"}, {"measurement": "TGI", "setting": "HOP-18 NSCLC", "result": "> 100", "unit": "µM"}, {"measurement": "TGI", "setting": "LXFL 529 NSCLC", "result": "> 100", "unit": "µM"}]}
{"compound": "N#CC12CCC(O)C(CC1)C2=O", "note": "(centres undefined)", "values": [{"measurement": "TGI", "setting": "KM20L2 colon", "result": "> 100", "unit": "µM"}, {"measurement": "TGI", "setting": "DLD-1 colon", "result": "> 100", "unit": "µM"}, {"measurement": "TGI", "setting": "DMS 114 small cell lung", "result": 36, "unit": "µM"}, {"measurement": "TGI", "setting": "M19-MEL melanoma", "result": "> 100", "unit": "µM"}, {"measurement": "TGI", "setting": "RXF-631 renal", "result": "> 100", "unit": "µM"}, {"measurement": "TGI", "setting": "XF 498 CNS", "result": "> 100", "unit": "µM"}, {"measurement": "TGI", "setting": "SNB-78 CNS", "result": "> 100", "unit": "µM"}, {"measurement": "TGI", "setting": "HOP-18 NSCLC", "result": "> 100", "unit": "µM"}]}
{"compound": "CC1=CCP(C(F)(F)F)P(C(F)(F)F)C1", "note": "(centres undefined)", "values": [{"measurement": "TGI", "setting": "KM20L2 colon", "result": "> 100", "unit": "µM"}, {"measurement": "TGI", "setting": "DLD-1 colon", "result": "> 100", "unit": "µM"}, {"measurement": "TGI", "setting": "DMS 114 small cell lung", "result": "> 100", "unit": "µM"}, {"measurement": "TGI", "setting": "M19-MEL melanoma", "result": "> 100", "unit": "µM"}, {"measurement": "TGI", "setting": "RXF-631 renal", "result": "> 100", "unit": "µM"}, {"measurement": "TGI", "setting": "SNB-78 CNS", "result": "> 100", "unit": "µM"}, {"measurement": "TGI", "setting": "HOP-18 NSCLC", "result": "> 100", "unit": "µM"}, {"measurement": "TGI", "setting": "LXFL 529 NSCLC", "result": "> 100", "unit": "µM"}]}
{"compound": "CN1NC2=NCCN=C3NN(C)C(=NCCN=C1S2)S3", "values": [{"measurement": "TGI", "setting": "KM20L2 colon", "result": "> 100", "unit": "µM"}, {"measurement": "TGI", "setting": "DLD-1 colon", "result": "> 100", "unit": "µM"}, {"measurement": "TGI", "setting": "M19-MEL melanoma", "result": "> 100", "unit": "µM"}, {"measurement": "TGI", "setting": "SNB-78 CNS", "result": "> 100", "unit": "µM"}, {"measurement": "TGI", "setting": "HOP-18 NSCLC", "result": "> 100", "unit": "µM"}, {"measurement": "TGI", "setting": "LXFL 529 NSCLC", "result": "> 100", "unit": "µM"}]}
{"compound": "CC[N+](C)(C)c1ccc(C(=C2C=CC(=[N+](C)C)C=C2)c2ccc(N(C)C)cc2)cc1", "values": [{"measurement": "TGI", "setting": "DLD-1 colon", "result": 62.4, "unit": "µM"}, {"measurement": "TGI", "setting": "DMS 114 small cell lung", "result": 26.7, "unit": "µM"}, {"measurement": "TGI", "setting": "M19-MEL melanoma", "result": 25, "unit": "µM"}, {"measurement": "TGI", "setting": "RXF-631 renal", "result": 38.4, "unit": "µM"}, {"measurement": "TGI", "setting": "XF 498 CNS", "result": 33.2, "unit": "µM"}, {"measurement": "TGI", "setting": "HOP-18 NSCLC", "result": "> 100", "unit": "µM"}, {"measurement": "TGI", "setting": "LXFL 529 NSCLC", "result": 34.1, "unit": "µM"}]}
{"compound": "Brc1nc2c3ccccc3ncn2c1Br", "values": [{"measurement": "TGI", "setting": "KM20L2 colon", "result": "> 100", "unit": "µM"}, {"measurement": "TGI", "setting": "DLD-1 colon", "result": "> 100", "unit": "µM"}, {"measurement": "TGI", "setting": "DMS 114 small cell lung", "result": 98.4, "unit": "µM"}, {"measurement": "TGI", "setting": "M19-MEL melanoma", "result": "> 100", "unit": "µM"}, {"measurement": "TGI", "setting": "RXF-631 renal", "result": "> 100", "unit": "µM"}, {"measurement": "TGI", "setting": "XF 498 CNS", "result": 46.9, "unit": "µM"}, {"measurement": "TGI", "setting": "SNB-78 CNS", "result": "> 100", "unit": "µM"}, {"measurement": "TGI", "setting": "HOP-18 NSCLC", "result": 47.8, "unit": "µM"}, {"measurement": "TGI", "setting": "LXFL 529 NSCLC", "result": "> 100", "unit": "µM"}]}
